Experiments:
[1] = system: chemotactic response of equimolar concentrations of LTB4; settings: cited from earlier work
[2] = stability of the isolated product on storage; format: physicochemical; settings: for stability of the neat isolated product: as isolated oil; for stability in solution: methanol solution
neutrophil = settings: cited from earlier work

| SMILES | stability of the neat isolated product [2] | stability in solution [2] | further results |
| --- | --- | --- | --- |
| CCCCC/C=C\C[C@H](/C=C/C=C/C=C\[C@H](CCCC(=O)O)OC(C)=O)OC(C)=O [LTB4 diacetate] |  |  | inhibition of chemotactic response to LTB4 [1]: competitively inhibit chemotactic response |
| CCCCCC=CCC(O)C=CC=CC=CC(O)CCCC(=O)N(C)C (stereo not shown) [dimethylamide of LTB4] |  |  | agonist activity (neutrophil; at the concentrations that inhibit degranulation): no appreciable agonist activity; inhibition of neutrophil degranulation induced by LTB4 (neutrophil): inhibit neutrophil degranulation induced by LTB4 |

Continued, in another order:

| stability of the neat isolated product [2] | stability in solution [2] | SMILES | further results |
| --- | --- | --- | --- |
| unstable oil | stable methanol solution | CCCCC/C=C\CC(O)/C=C/c1cccc(CC(O)CCCC(=O)O)n1 (stereo not shown) [Example 35, 2-Pyridinehexanoic acid, delta-hydroxy-6-(3-hydroxy-1,5-undecadienyl) -] |  |
|  | stable as a methanol solution | CCCCC/C=C\CC(O)C#Cc1cccc(CC(O)CCCC(=O)O)c1 (stereo not shown) [Example 24, Benzenehexanoic acid, delta-hydroxy-3-[(3-hydroxy-5-undecen-1-ynyl)]] |  |
| unstable pale oil |  | CCCCC/C=C\CC(O)C#Cc1cccc(CC(O)CCCC(=O)O)n1 (stereo not shown) [Example 36, 2-Pyridinehexanoic acid, delta-hydroxy-6-(3-hydroxy-5-undecen-1-ynyl)-] |  |

From patent US5116981A, “Antiinflammatory leukotriene B4 analogs” (The Upjohn Company, priority 1989, dated 1992)
